Test results from patent publication US11970466B1, “4-((5-(3-fluorophenyl)-4-phenyl-4H-1,2,4-triazol-3-ylthio)methyl)benzoic acid as an antimicrobial compound” (KING FAISAL UNIVERSITY, priority 2023, dated 2024).

Key:
Type in all cases: cell-based
Escherichia coli = assay: Agar plate disc-diffusion, antibacterial inhibition zone; conditions: Escherichia coli (Gram negative), nutrient agar, 37° C., 48 hours
Description: (§1) The agar plate disc-diffusion method was applied. Sterilized filter papers (6 mm in diameter) were wetted with 10 μL of a solution of 4-((5-(3-fluorophenyl)-4-phenyl-4H-1,2,4-triazol-3-ylthio)methyl)benzoic acid (III) to be tested, containing 10 mg/mL in DMSO, and the discs were allowed to air dry. The discs were then placed onto the surface of agar plates (nutrient agar for bacteria and Sabouraud's dextrose agar for fungi) seeded with the test organism. Each plate contained 15 mL of the agar medium, previously seeded with 0.2 mL of the broth culture of each organism pregrown for 18 hours. The plates were incubated at 37° C. for 48 hours, and 72 hours for fungi. The inhibition zones were measured in mm. Discs impregnated with DMSO were used as a control, and its inhibition zone was subtracted from the tested compound actual inhibition zone.

[1] = test system: Chrysosporium keratinophilum; assay: Agar plate disc-diffusion, antifungal inhibition zone; conditions: Sabouraud's dextrose agar, 72 hours
Description: as §1

Pseudomonas aeruginosa = assay: Agar plate disc-diffusion, antibacterial inhibition zone; conditions: Pseudomonas aeruginosa (Gram negative), nutrient agar, 37° C., 48 hours
Description: as §1, with “Sterilized filter papers (6 mm in diameter) were wetted with 10 μL of a solution of 4-((5-(3-fluorophenyl)-4-phenyl-4H-1,2,4-triazol-3-ylthio)methyl)benzoic acid (III) to be tested, containing 10 mg/mL in DMSO, and the discs were allowed to air dry.” left out

Bacillus Cereus = assay: as above; conditions: Bacillus Cereus (Gram positive), nutrient agar, 37° C., 48 hours
Description: as §1, with “Sterilized filter papers (6 mm in diameter) were wetted with 10 μL of a solution of 4-((5-(3-fluorophenyl)-4-phenyl-4H-1,2,4-triazol-3-ylthio)methyl)benzoic acid (III) to be tested, containing 10 mg/mL in DMSO, and the discs were allowed to air dry.” left out

Staphylococcus aureus = assay: as above; conditions: Staphylococcus aureus (Gram positive), nutrient agar, 37° C., 48 hours
Description: as §1, with “Sterilized filter papers (6 mm in diameter) were wetted with 10 μL of a solution of 4-((5-(3-fluorophenyl)-4-phenyl-4H-1,2,4-triazol-3-ylthio)methyl)benzoic acid (III) to be tested, containing 10 mg/mL in DMSO, and the discs were allowed to air dry.” left out

Aspergillus flavus = assay: Agar plate disc-diffusion, antifungal inhibition zone; conditions: Sabouraud's dextrose agar, 72 hours
Description: as §1, with “Sterilized filter papers (6 mm in diameter) were wetted with 10 μL of a solution of 4-((5-(3-fluorophenyl)-4-phenyl-4H-1,2,4-triazol-3-ylthio)methyl)benzoic acid (III) to be tested, containing 10 mg/mL in DMSO, and the discs were allowed to air dry.” left out

[2] = A = concentration of comp. = 10,000 μL
[3] = B = concentration of comp. = 30,000 μL
[4] = C = concentration of comp. = 50,000 μL

Compound | inhibition zone (Escherichia coli; [2]) [mm] | inhibition zone (Escherichia coli; [3]) [mm] | inhibition zone (Escherichia coli; [4]) [mm] | inhibition zone [1, 2] [mm] | inhibition zone [1, 3] [mm] | inhibition zone [1, 4] [mm] | inhibition zone (Pseudomonas aeruginosa; [2]) [mm] | inhibition zone (Pseudomonas aeruginosa; [3]) [mm] | inhibition zone (Pseudomonas aeruginosa; [4]) [mm] | inhibition zone (Bacillus Cereus; [2]) [mm] | inhibition zone (Bacillus Cereus; [3]) [mm] | inhibition zone (Bacillus Cereus; [4]) [mm] | inhibition zone (Staphylococcus aureus; [2]) [mm] | inhibition zone (Staphylococcus aureus; [3]) [mm] | inhibition zone (Staphylococcus aureus; [4]) [mm] | inhibition zone (Aspergillus flavus; [2]) [mm] | inhibition zone (Aspergillus flavus; [3]) [mm] | inhibition zone (Aspergillus flavus; [4]) [mm]
O=C(O)c1cn(C2CC2)c2cc(N3CCNCC3)c(F)cc2c1=O [Cip., ciprofloxacin] | 30 | 39 | 60 | 29 | 30 | 53 | 29 | 30 | 53 | 29 | 30 | 42 | 43 | 44 | 53 | 29 | 30 | 42
O=C(O)c1ccc(CSc2nnc(-c3cccc(F)c3)n2-c2ccccc2)cc1 [III, 4-((5-(3-fluorophenyl)-4-phenyl-4H-1,2,4-triazol-3-ylthio)methyl)benzoic acid] | 28 | 36 | 50 | 23 | 27 | 41 | 22 | 26 | 37 | 26 | 28 | 40 | 19 | 25 | 35 | 24 | 26 | 35
